Results as given in ChEMBL document CHEMBL5244280, “Evodiamine Lowers Blood Lipids by Up-Regulating the PPARγ/ABCG1 Pathway in High-Fat-Diet-Fed Mice” (J Nat Prod, 2021).
Active and inactive are the calls of the source. No cut-off for these calls is given here.

Columns and labels:
Mus musculus [1] = assay: Protection against hyperlipidemia in high fat diet-fed hyperlipidemic ICR mouse model assessed as reduction in serum triglyceride content at 20 mg/kg, ig administered daily via gavage for 8 weeks by spectrophotometric analysis; format: functional, organism-based
Mus musculus [2] = assay: Upregulation of PPAR-gamma mRNA expression in liver of high fat diet fed hyperlipidemic ICR mouse model at 10 to 20 mg/kg, ig administered daily via gavage for 8 weeks by qPCR analysis; format: functional, organism-based; conditions: dose 10-20 mg/kg
[3] = Toxicity in normal diet fed ICR mouse assessed as liver morphological changes at 10 mg/kg, ig administered daily via gavage for 8 weeks; format: organism-based; conditions: in vivo, po, 1344 h
Mus musculus [4] = assay: Upregulation of NPC1L1 protein expression in liver of high fat diet fed hyperlipidemic ICR mouse model at 10 mg/kg, ig administered daily via gavage for 8 weeks by western blotting analysis; format: functional, organism-based
Mus musculus [5] = assay: Protection against hyperlipidemia in high fat diet-fed hyperlipidemic ICR mouse model assessed as reduction in hepatic triglyceride content at 10 mg/kg, ig administered daily via gavage for 8 weeks by colorimetric assay; format: functional; conditions: po, 1344 h
[6] = Toxicity in normal diet fed ICR mouse assessed as ratio of kidney weight to body weight at 10 mg/kg, ig administered daily via gavage for 8 weeks (reference value: 1.33 +/-0.12); format: organism-based; conditions: in vivo, po, 1344 h
[7] = target: T1, Retinoic acid receptor RXR-alpha (Homo sapiens) (UniProt P19793); assay: Agonist activity at human RXR-alpha expressed in HEK293 cells co-transfected with luciferase reporter plasmid assessed as receptor transactivation at 10 uM incubated for 18 hrs by luciferase reporter gene assay relative to control; format: cell-based
T1 sequence (whole entry): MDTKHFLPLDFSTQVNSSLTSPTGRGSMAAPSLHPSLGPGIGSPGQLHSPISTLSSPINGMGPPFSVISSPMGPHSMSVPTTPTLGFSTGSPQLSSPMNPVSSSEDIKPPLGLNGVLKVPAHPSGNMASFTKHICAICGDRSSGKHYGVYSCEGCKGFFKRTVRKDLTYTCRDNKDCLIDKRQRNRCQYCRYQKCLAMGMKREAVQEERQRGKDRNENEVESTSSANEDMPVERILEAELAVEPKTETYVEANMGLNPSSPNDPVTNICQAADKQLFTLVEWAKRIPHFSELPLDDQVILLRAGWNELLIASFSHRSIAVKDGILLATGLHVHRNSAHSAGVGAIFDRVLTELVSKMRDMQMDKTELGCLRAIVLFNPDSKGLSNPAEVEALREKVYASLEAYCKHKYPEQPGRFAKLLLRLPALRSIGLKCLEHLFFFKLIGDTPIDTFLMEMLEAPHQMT

Mus musculus [8] = assay: Upregulation of ABCA1 protein expression in liver of high fat diet fed hyperlipidemic ICR mouse model at 10 mg/kg, ig administered daily via gavage for 8 weeks by western blotting analysis; format: functional, organism-based
Mus musculus [9] = assay: Downregulation of ABCG8 mRNA expression in liver of high fat diet fed hyperlipidemic ICR mouse model at 10 mg/kg, ig administered daily via gavage for 8 weeks by qPCR analysis; format: functional, organism-based
[10] = Toxicity against normal diet-fed ICR mouse assessed as effect on plasma triglyceride content at 10 mg/kg, ig administered daily via gavage for 8 weeks by spectrophotometric analysis; format: organism-based; conditions: in vivo, po, 1344 h
Mus musculus [11] = assay: Protection against hyperlipidemia in high fat diet-fed hyperlipidemic ICR mouse model assessed as reduction in vacuolar degeneration of hepatocytes at 10 mg/kg, ig administered daily via gavage for 8 weeks by Hematoxylin-eosin staining based analysis; format: functional, organism-based
Mus musculus [12] = assay: Upregulation of ABCG5 mRNA expression in liver of high fat diet fed hyperlipidemic ICR mouse model at 10 mg/kg, ig administered daily via gavage for 8 weeks by qPCR analysis; format: functional, organism-based
[13] = Toxicity in normal diet fed ICR mouse assessed as body weight loss at 10 mg/kg, ig administered daily via gavage for 8 weeks; format: organism-based; conditions: in vivo, po, 1344 h
Mus musculus [14] = assay: Upregulation of ABCG1 mRNA expression in liver of high fat diet fed hyperlipidemic ICR mouse model at 10 mg/kg, ig administered daily via gavage for 8 weeks by qPCR analysis relative to control; format: functional
[15] = Toxicity in normal diet fed ICR mouse assessed as ratio of lung weight to body weight at 10 mg/kg, ig administered daily via gavage for 8 weeks (reference value: 0.83 +/-0.32); format: organism-based; conditions: in vivo, po, 1344 h
[16] = Toxicity in high fat diet fed hyperlipidemic ICR mouse model assessed as ratio of lung weight to body weight at 10 mg/kg, ig administered daily via gavage for 8 weeks (reference value: 0.93 +/-0.28); format: organism-based; conditions: in vivo, po, 1344 h
[17] = Toxicity in normal diet fed ICR mouse assessed as ratio of heart weight to body weight at 10 mg/kg, ig administered daily via gavage for 8 weeks (reference value: 0.46 +/-0.03); format: organism-based; conditions: in vivo, po, 1344 h
Mus musculus [18] = assay: Protection against hyperlipidemia in high fat diet-fed hyperlipidemic ICR mouse model assessed as reduction in hepatic TBA content at 10 to 20 mg/kg, ig administered daily via gavage for 8 weeks by colorimetric assay; format: functional, organism-based; conditions: dose 10-20 mg/kg
Mus musculus [19] = assay: Protection against hyperlipidemia in high fat diet-fed hyperlipidemic ICR mouse model assessed as reduction in body weight at 10 mg/kg, ig administered daily via gavage for 8 weeks; format: functional; conditions: po, 1344 h
Mus musculus [20] = assay: Effect on food intake in high fat diet-fed hyperlipidemic ICR mouse model at 10 mg/kg, ig administered daily via gavage for 8 weeks; format: functional, organism-based
Mus musculus [21] = assay: Protection against hyperlipidemia in high fat diet-fed hyperlipidemic ICR mouse model assessed as reduction in serum total cholesterol content at 20 mg/kg, ig administered daily via gavage for 8 weeks by spectrophotometric analysis; format: functional, organism-based
[22] = Toxicity in high fat diet fed hyperlipidemic ICR mouse model assessed as ratio of heart weight to body weight at 10 mg/kg, ig administered daily via gavage for 8 weeks (reference value: 0.48 +/-0.03); format: organism-based; conditions: in vivo, po, 1344 h
[23] = Toxicity in normal diet fed ICR mouse assessed as hepatic triglyceride content at 10 mg/kg, ig administered daily via gavage for 8 weeks by colorimetric assay; format: organism-based; conditions: in vivo, po, 1344 h
[24] = Toxicity in normal diet fed ICR mouse assessed as hepatic total cholesterol content at 10 mg/kg, ig administered daily via gavage for 8 weeks by colorimetric assay; format: organism-based; conditions: in vivo, po, 1344 h
Mus musculus [25] = assay: Protection against hyperlipidemia in high fat diet-fed hyperlipidemic ICR mouse model assessed as reduction in serum triglyceride content at 10 mg/kg, ig administered daily via gavage for 8 weeks by spectrophotometric analysis; format: functional; conditions: po, 1344 h
[26] = Toxicity in normal diet fed ICR mouse assessed as ratio of liver weight to body weight at 10 mg/kg, ig administered daily via gavage for 8 weeks (reference value: 3.74 +/-0.53); format: organism-based; conditions: in vivo, po, 1344 h
Mus musculus [27] = assay: Protection against hyperlipidemia in high fat diet-fed hyperlipidemic ICR mouse model assessed as serum HDL-C content at 10 mg/kg, ig administered daily via gavage for 8 weeks by spectrophotometric analysis; format: functional, organism-based
[28] = Toxicity in normal diet fed ICR mouse assessed as effect on food intake at 10 mg/kg, ig administered daily via gavage for 8 weeks; format: organism-based; conditions: in vivo, po, 1344 h
[29] = Toxicity in high fat diet fed hyperlipidemic ICR mouse model assessed as ratio of stomach weight to body weight at 10 mg/kg, ig administered daily via gavage for 8 weeks (reference value: 1.41 +/-0.34); format: organism-based; conditions: in vivo, po, 1344 h
Mus musculus [30] = assay: Protection against hyperlipidemia in high fat diet-fed hyperlipidemic ICR mouse model assessed as serum HDL-C content at 20 mg/kg, ig administered daily via gavage for 8 weeks by spectrophotometric analysis; format: functional, organism-based

In the case of `CN1c2ccccc2C(=O)N2CCc3c([nH]c4ccccc34)C21` (stereo not given), the Activity (Mus musculus [1]) is reported as “Active”, the Activity (Mus musculus [2]) is reported as “Active” and the Activity [3] is reported as “Non-Toxic”. For the same compound, the Activity (Mus musculus [4]) was “inactive”, the inhibition in vivo at 10 mg/kg (Mus musculus [5]) was 33.2% and the Ratio [6] was 1.33. The fold change (FC) [7] was 1.04, the Activity (Mus musculus [8]) was “inactive” and the inhibition (Mus musculus [9]) was “Active”. For the same compound, the Activity [10] was “Non-Toxic”, the Activity (Mus musculus [11]) was “Active” and the Activity (Mus musculus [12]) was “inactive”. For the same compound, the Activity [13] was “Toxic”, the “fold change (FC)” value (Mus musculus [14]) was 3.6 and the Ratio [15] was 0.78. For the same compound, the Ratio [16] was 0.81, the Ratio [17] was 0.49 and the Activity (Mus musculus [18]) was “Active”. For the same compound, the inhibition in vivo at 10 mg/kg (Mus musculus [19]) was 68.1%, the Activity (Mus musculus [20]) was “inactive” and the Activity (Mus musculus [21]) was “Active”. For the same compound, the Ratio [22] was 0.48, the Activity [23] was “Non-Toxic” and the Activity [24] was “Non-Toxic”. The inhibition in vivo at 10 mg/kg (Mus musculus [25]) was 34%, the Ratio [26] was 3.64 and the Activity (Mus musculus [27]) was “inactive”. For the same compound, the Activity [28] was “Non-Toxic”, the Ratio [29] was 1.22 and the Activity (Mus musculus [30]) was “inactive”.
